“And” between values parts separate entries of the source, which are not always exact repeats. Equal entries are not always repeated.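 Briefly, cells in 96-well plates were exposed to five compound concentrations for 48 h, and endpoints were estimated by linear interpolation. At the GI50, growth is halved. TGI marks complete inhibition of growth.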

Drawing on PubChem BioAssay (NCI), this text covers TGI and GI50 for nine compounds.

Common to all, as to test: DTP human tumour cell line panel, 48 h
In experiment [1] the test system is RXF 393 renal.
Experiment [2] relates to OVCAR-3 ovarian.
In experiment [3] the test system is SF-268 CNS.
In experiment [4] the test system is SF-295 CNS.
The subject of experiment [5] is HOP-62 NSCLC.
The test system of experiment [6] is T-47D breast.
The subject of experiment [7] is MOLT-4 leukemia.
Experiment [8] concerns COLO 205 colon.
Experiment [9] has as its system M14 melanoma.
Experiment [10] concerns SW-620 colon.

For the compound `C/C(N=NC(=S)N1CCCCCC1)=C1\C=CC=CN1O`, the TGI is 79.5 µM in [1]; 11.8 µM in experiment [2]; > 100 µM in [3]; > 100 µM in experiment [4]; > 20.5 µM in experiment [5]; 77.7 µM in experiment [6]. For the same compound, the TGI was 20.1 µM in [7], 55.2 µM in experiment [8], 38.8 µM in experiment [9] and > 100 µM in experiment [10].
With `CC(C)c1ccc2c(c1)c(SC(C)(C)C)c(CC(C)(C)C(=O)O)n2Cc1ccc(Cl)cc1`, the GI50 was 2.87 µM in experiment [1]; 6.36 µM in experiment [2]; 8.79 µM in experiment [3]; 6.69 µM in experiment [4]; 12.4 µM in experiment [5]; 9.86 µM in [6]. Besides, the GI50 is 1.64 µM in experiment [7], 8.46 µM in [8], 16.3 µM in experiment [9] and 12.4 µM in experiment [10]. Besides, the TGI in [1] came out at 12.4 µM; in experiment [2], 19.8 µM; in experiment [3], 23.5 µM; in [4] it was 22.2 µM; in [5], 28.9 µM; in [6] it was 27.3 µM. For the same compound, the TGI in [7] was found to be 26.3 µM; in experiment [8], 21.9 µM; in [9], 36.5 µM; in [10], 29.1 µM.
Regarding `COc1ccc(-c2nn3ncccc3c2-c2ccnc(Nc3cccc(C(F)(F)F)c3)n2)cc1`, the GI50 in experiment [1] is 5.76 µM; in experiment [2] it was 8.36 µM; in experiment [3], 9.86 µM; in experiment [4] it was 7.6 µM; in experiment [5], 16.8 µM; in [6] it was 6.53 µM. The GI50 is 8.8 µM in experiment [7], 17 µM in [8], 9.01 µM in [9] and 10.8 µM in experiment [10]. The TGI was 24.5 µM in [1]; > 25 µM in experiment [2]; > 25 µM in experiment [3]; > 25 µM in [4]; > 25 µM in experiment [5]; > 25 µM in [6]. The TGI in experiment [7], in [8], in experiment [9] and in experiment [10] was > 25 µM each time.
Consider `COc1ccc2c(c1)c(-c1cc(-c3cn(C)c4ccc(OC)cc34)[nH]n1)cn2C`, for which the GI50 in experiment [1], in experiment [2], in [3], in [4], in experiment [5] and in experiment [6] was > 100 µM throughout. The GI50 in experiment [7], in [8], in experiment [9] and in experiment [10] was > 100 µM in each case. Also, the TGI in experiment [1], in experiment [2], in experiment [3], in [4], in [5] and in experiment [6] was > 100 µM throughout. For the same compound, the TGI in experiment [7], in [8], in experiment [9] and in [10] was > 100 µM in each case.
With `N#CC1=C(N)NC(=S)C(C#N)C12Nc1ccccc1S2` (centres undefined), the GI50 in [1] is 27.7 µM; in experiment [2], 12.6 µM; in experiment [3], 14.8 µM; in experiment [4], 19.5 µM; in experiment [5], 17.6 µM; in [6], 32.9 µM. Further, the GI50 in experiment [7] was > 100 µM; in [8] it was 25.5 µM; in [9], 16.1 µM; in [10] it was 19.1 µM. For the same compound, the TGI came out at 57.5 µM in experiment [1]; 40.1 µM in [2]; 42.9 µM in experiment [3]; 47.8 µM in experiment [4]; 72.4 µM in experiment [5]; 98.4 µM in experiment [6]. Besides, the TGI in experiment [7] is > 100 µM; in experiment [8], 60.6 µM; in [9] it was 32 µM; in [10], 42.3 µM.
Take `Fc1ccc(-c2cc(-c3cn[nH]c3-c3ccccn3)ccn2)cc1`: the GI50 in experiment [1], in experiment [2], in experiment [3], in experiment [4], in [5] and in [6] was > 25 µM in each case. Besides, the GI50 in [7] was > 25 µM; in experiment [8] it was > 25 µM; in [9] it was > 17 µM; in experiment [10] it was > 25 µM. Besides, the total growth inhibition concentration (TGI) in [1], in experiment [2], in experiment [3], in [4], in [5] and in [6] was > 25 µM in each case. For the same compound, the TGI in [7], in experiment [8], in [9] and in experiment [10] was > 25 µM in each case.
In the case of `C=C[C@@]1(C)CC(=O)[C@]2(O)[C@@]3(C)[C@@H](O)CCC(C)(C)[C@@H]3[C@H](O)[C@@H](OC(C)=O)[C@@]2(C)O1`, the TGI in experiment [1], in experiment [2], in [3], in experiment [4], in [5] and in [6] was > 100 µM each time. Further, the TGI in [7], in [8], in experiment [9] and in experiment [10] was > 100 µM throughout.
As for `Oc1cccc(-c2nc(N3CCOCC3)c3oc4ncccc4c3n2)c1`, the GI50 is 0.0796 µM and 0.116 µM in experiment [1]; 0.164 µM and 0.213 µM in experiment [2]; 0.196 µM and 0.181 µM in experiment [3]; 1.21 µM and 1.62 µM in experiment [4]; 0.234 µM and 0.227 µM in experiment [5]; 0.212 µM and 0.192 µM in [6]. The GI50 in [7] is 0.102 µM and 0.168 µM; in experiment [8], 10.5 µM and 17.8 µM; in experiment [9] it was 0.127 µM and 0.152 µM; in experiment [10], 0.344 µM and 0.353 µM. The TGI in experiment [1] was 0.361 µM and 0.55 µM; in experiment [2] it was 0.811 µM and 3.24 µM; in experiment [3] it was > 100 µM and 19.9 µM; in experiment [4], 4.08 µM and 4.6 µM; in [5], 3.7 µM and 5.53 µM; in [6] it was 1.34 µM and 0.814 µM. Besides, the TGI in [7] is > 100 µM; in experiment [8] it was 41.7 µM and > 72 µM; in experiment [10], > 100 µM.
As to `CC(=O)Oc1ccc2c(c1)O/C(=C\c1ccc(O)cc1)C2=O`, the TGI in [1], in [2], in experiment [3], in experiment [4], in [5] and in experiment [6] was > 100 µM throughout. The TGI in experiment [7], in experiment [8], in experiment [9] and in [10] was > 100 µM throughout.
